Data on 13 compounds can be found in PubChem BioAssay (NCI).

Test systems include SK-OV-3 ovarian; SF-268 CNS; NCI-H23 lung; A549 NSCLC; NCI/ADR-RES ovarian; SN12C renal; HCC-2998 colon; U251 CNS; UACC-62 melanoma; SNB-75 CNS; OVCAR-8 ovarian; SK-MEL-5 melanoma; HS 578T breast; SF-295 CNS; KM12 colon; HT29 colon; HCT-15 colon; NCI-H522 lung; DU-145 prostate.
Holding throughout (assay): inhibition of tumour cell growth, NCI panel, 48 h

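Test compounds were applied to cells in 96-well plates for 48 hours at 5 doses. TGI marks complete inhibition of growth.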

For the compound `Cn1cc(S(=O)(=O)NC(=O)Nc2ccc(Cl)cc2)c(=O)c2ccc(Cl)cc21`, the TGI in the experiment on SK-OV-3 ovarian, in the experiment on SF-268 CNS, in the experiment with NCI-H23 lung, in the experiment with A549 NSCLC, in the experiment on NCI/ADR-RES ovarian and in the experiment with SN12C renal was above 100 µM throughout. Moreover, the TGI with HCC-2998 colon, in the experiment on U251 CNS, in the experiment with UACC-62 melanoma, in the experiment with SNB-75 CNS, in the experiment with OVCAR-8 ovarian and in the experiment with SK-MEL-5 melanoma was above 100 µM in each case. The TGI was above 100 µM in the experiment on HS 578T breast; above 100 µM in the experiment on SF-295 CNS; above 100 µM with KM12 colon; above 100 µM in the experiment with HT29 colon; above 100 µM in the experiment with HCT-15 colon; 41.4 µM in the experiment with NCI-H522 lung.

`SCc1ccc(-c2ccc(CS)cc2)cc1`: the TGI in the experiment on SK-OV-3 ovarian was 33.2 µM; in the experiment on SF-268 CNS it was 10.3 µM; in the experiment with NCI-H23 lung it was 31.7 µM; with A549 NSCLC it was 39.6 µM; with NCI/ADR-RES ovarian it was 32.3 µM; in the experiment on SN12C renal, above 81.2 µM. Also, the TGI with HCC-2998 colon was 30.6 µM; with U251 CNS it was 31.1 µM; in the experiment on UACC-62 melanoma it was 41.2 µM; in the experiment with SNB-75 CNS it was 28.1 µM; in the experiment with OVCAR-8 ovarian, 53.7 µM; with SK-MEL-5 melanoma, 31 µM. Also, the TGI in the experiment with HS 578T breast was 22.3 µM; in the experiment with SF-295 CNS, 24.9 µM; in the experiment on KM12 colon, 10.1 µM; in the experiment with HT29 colon, 69.8 µM; in the experiment with HCT-15 colon, 33.3 µM; in the experiment with NCI-H522 lung, 37.7 µM.

As for `COC1CC(=O)C2C(=O)N(c3ccccc3)C(=O)C23C(C(=O)c2ccccc2)=C(C)NC13O` (configuration not stated), the TGI is 27.8 µM with DU-145 prostate; 54 µM with SK-OV-3 ovarian; 22.6 µM with SF-268 CNS; 46.3 µM in the experiment on NCI-H23 lung; above 100 µM in the experiment on A549 NSCLC; 50.9 µM with NCI/ADR-RES ovarian. The TGI with SN12C renal is 37.1 µM; in the experiment with U251 CNS, 35.5 µM; in the experiment with UACC-62 melanoma it was 31.3 µM; with OVCAR-8 ovarian it was above 100 µM; in the experiment with SK-MEL-5 melanoma, 37.4 µM; in the experiment with HS 578T breast, 57.7 µM. The TGI is above 100 µM in the experiment with SF-295 CNS; 35.6 µM in the experiment on KM12 colon; 34.2 µM in the experiment on HT29 colon; 23.4 µM in the experiment on HCT-15 colon; 6.3 µM in the experiment on NCI-H522 lung.

With `COc1ccc(OC)c2sc(N3C(=O)/C(=C/c4ccc(SC)cc4)N=C3c3ccccc3)nc12`, the TGI in the experiment on DU-145 prostate was above 100 µM; in the experiment with SK-OV-3 ovarian, above 100 µM; in the experiment with SF-268 CNS, 88.1 µM; in the experiment with A549 NSCLC, 53.9 µM; with NCI/ADR-RES ovarian, 89.9 µM; in the experiment on SN12C renal, 70.2 µM. For the same compound, the TGI in the experiment on HCC-2998 colon is above 100 µM; in the experiment with U251 CNS, 32.3 µM; in the experiment on UACC-62 melanoma it was above 100 µM; with SNB-75 CNS it was 43.6 µM; in the experiment on OVCAR-8 ovarian it was 92.6 µM; in the experiment with SK-MEL-5 melanoma, 33.8 µM. Moreover, the TGI with HS 578T breast was 60.8 µM; in the experiment on SF-295 CNS, above 100 µM; in the experiment on KM12 colon, 52.5 µM; in the experiment with HT29 colon, 53.3 µM; in the experiment on HCT-15 colon, above 100 µM.

For the compound `COc1c(N2CCCCC2)c2c(=O)c3ccccc3oc2c2cc(C)oc12`, the TGI is 77.5 µM in the experiment with DU-145 prostate; above 100 µM with SK-OV-3 ovarian; above 100 µM with SF-268 CNS; above 100 µM in the experiment with NCI-H23 lung; above 100 µM in the experiment on A549 NSCLC; above 100 µM with NCI/ADR-RES ovarian. The TGI is 84.8 µM in the experiment on SN12C renal; above 100 µM in the experiment with HCC-2998 colon; above 100 µM with U251 CNS; 68.3 µM with UACC-62 melanoma; 42.9 µM with SNB-75 CNS; above 100 µM in the experiment on OVCAR-8 ovarian. Moreover, the TGI in the experiment with SK-MEL-5 melanoma was 40.7 µM; in the experiment with HS 578T breast, 79.6 µM; with SF-295 CNS, above 100 µM; in the experiment with KM12 colon it was 62.4 µM; with HT29 colon it was 38.6 µM; with HCT-15 colon, above 100 µM.

On to `CCOc1cc(/C=N\O)cc(/C=N/O)c1O`, for which the TGI in the experiment with DU-145 prostate was above 100 µM; with SK-OV-3 ovarian, above 100 µM; with SF-268 CNS it was 64.1 µM; with NCI-H23 lung, above 100 µM; with A549 NSCLC it was above 100 µM; in the experiment on NCI/ADR-RES ovarian, above 100 µM. Moreover, the TGI with SN12C renal is above 100 µM; in the experiment on HCC-2998 colon it was above 100 µM; in the experiment with U251 CNS, 84.3 µM; with UACC-62 melanoma it was above 100 µM; in the experiment with SNB-75 CNS, 57.6 µM; with OVCAR-8 ovarian it was 66.6 µM. The TGI in the experiment on SK-MEL-5 melanoma is 39.5 µM; in the experiment with HS 578T breast, above 100 µM; in the experiment on SF-295 CNS, above 100 µM; in the experiment on KM12 colon, above 100 µM; with HT29 colon, above 100 µM; with HCT-15 colon, 92.6 µM.

For `Clc1ccc(/C=c2\nc(-c3ccccc3)n3c2nc2ccccc23)cc1`, the TGI in the experiment with DU-145 prostate, in the experiment with SK-OV-3 ovarian, in the experiment on SF-268 CNS, in the experiment on NCI-H23 lung, in the experiment with A549 NSCLC and in the experiment with NCI/ADR-RES ovarian was above 100 µM in each case. Besides, the TGI in the experiment with SN12C renal, with U251 CNS, in the experiment with UACC-62 melanoma, in the experiment on OVCAR-8 ovarian, with SK-MEL-5 melanoma and in the experiment on HS 578T breast was above 100 µM in each case. Further, the TGI with SF-295 CNS, with KM12 colon, in the experiment with HT29 colon and in the experiment with HCT-15 colon was above 100 µM in each case.

Regarding `O=S(=O)(Nc1nc2ccccc2nc1Nc1cccc2ccccc12)c1ccccc1`, the TGI in the experiment with DU-145 prostate was above 100 µM; in the experiment on SK-OV-3 ovarian it was above 100 µM; with SF-268 CNS, above 100 µM; in the experiment with NCI-H23 lung it was 64.4 µM; with A549 NSCLC it was above 100 µM; with NCI/ADR-RES ovarian, above 100 µM. The TGI was above 100 µM in the experiment on SN12C renal; above 100 µM with HCC-2998 colon; 30 µM in the experiment with U251 CNS; above 100 µM in the experiment on UACC-62 melanoma; 57.6 µM in the experiment on SNB-75 CNS; above 100 µM with OVCAR-8 ovarian. The TGI in the experiment with SK-MEL-5 melanoma is above 100 µM; with HS 578T breast it was 95.2 µM; in the experiment with SF-295 CNS, above 100 µM; in the experiment with KM12 colon it was above 100 µM.

Consider `CC1OC1P(=O)(O)O` (configuration not stated), for which the TGI in the experiment on DU-145 prostate, in the experiment with SK-OV-3 ovarian, in the experiment on SF-268 CNS, in the experiment on NCI-H23 lung, in the experiment on A549 NSCLC and with SN12C renal was above 100 µM in each case. Also, the TGI in the experiment on HCC-2998 colon, with U251 CNS, with UACC-62 melanoma, in the experiment on SNB-75 CNS, in the experiment on OVCAR-8 ovarian and with SK-MEL-5 melanoma was above 100 µM each time. Moreover, the TGI in the experiment with HS 578T breast, with SF-295 CNS, with KM12 colon, in the experiment on HT29 colon and in the experiment on HCT-15 colon was above 100 µM throughout.

Regarding `CC(SC(=S)N(C)C)C(=O)Nc1nnc(-c2ccc(Cl)cc2)o1` (configuration not stated), the TGI with DU-145 prostate, in the experiment on SK-OV-3 ovarian, in the experiment on SF-268 CNS, in the experiment on NCI-H23 lung, in the experiment with A549 NSCLC and with NCI/ADR-RES ovarian was above 100 µM throughout. The TGI in the experiment with SN12C renal, in the experiment on HCC-2998 colon, in the experiment on U251 CNS, with UACC-62 melanoma, in the experiment with SNB-75 CNS and with OVCAR-8 ovarian was above 100 µM in each case. Further, the TGI in the experiment on SK-MEL-5 melanoma is above 100 µM; in the experiment on HS 578T breast it was above 100 µM; in the experiment on HT29 colon it was 51.9 µM; with HCT-15 colon, above 100 µM.

Take `COc1cccc([C@@H]2C/C(=N\NC(=O)C(=O)N[C@@H](C)c3ccccc3)c3cc4c(cc3N2)OCO4)c1`: the TGI in the experiment with DU-145 prostate, in the experiment on SK-OV-3 ovarian, with SF-268 CNS, in the experiment with A549 NSCLC, with NCI/ADR-RES ovarian and in the experiment on SN12C renal was above 100 µM in each case. Besides, the TGI in the experiment on HCC-2998 colon is above 100 µM; in the experiment with U251 CNS it was above 100 µM; with UACC-62 melanoma it was above 100 µM; in the experiment on SNB-75 CNS, above 100 µM; in the experiment with SK-MEL-5 melanoma it was 65.3 µM; with HS 578T breast, above 100 µM. The TGI in the experiment with SF-295 CNS, in the experiment on KM12 colon and with HCT-15 colon was above 100 µM throughout.

As to `O=C(CC(C(=O)c1cccs1)c1ccsc1)c1ccc(Cl)cc1` (configuration not stated), the TGI in the experiment with DU-145 prostate, in the experiment on SK-OV-3 ovarian, in the experiment with SF-268 CNS, with NCI-H23 lung, in the experiment on A549 NSCLC and with NCI/ADR-RES ovarian was above 100 µM throughout. Also, the TGI in the experiment with SN12C renal, in the experiment on HCC-2998 colon, in the experiment on U251 CNS, with UACC-62 melanoma, in the experiment on SNB-75 CNS and in the experiment on OVCAR-8 ovarian was above 100 µM each time. Also, the TGI with SK-MEL-5 melanoma, in the experiment on HS 578T breast, in the experiment with SF-295 CNS, in the experiment with KM12 colon, with HT29 colon and in the experiment with HCT-15 colon was above 100 µM each time.

As to `CCOC(=O)CCC(NC(=O)C(CCC(=O)OCC)NC(=O)C(Cc1ccc([N+](=O)[O-])cc1)NC(C)=O)C(=O)NNC(=O)OC(C)(C)C` (configuration not stated), the TGI in the experiment on NCI-H23 lung, in the experiment on A549 NSCLC, with SN12C renal, in the experiment with HCC-2998 colon, in the experiment with U251 CNS and in the experiment on UACC-62 melanoma was above 100 µM throughout. Further, the TGI in the experiment on SNB-75 CNS, in the experiment with OVCAR-8 ovarian, in the experiment with SK-MEL-5 melanoma, in the experiment on HS 578T breast, in the experiment with KM12 colon and in the experiment on HT29 colon was above 100 µM in each case. The same compound gave a TGI with HCT-15 colon above 100 µM.
